Read-outs that look alike come from different tables or passages of the source.
Tests used:
BRD9 [1] = target: T1, BRD9 (Homo sapiens, UniProt Q9H8M2); assay: Immunoblot of BRD9 in HEK293 BRD9-HiBiT/FF/CAS9 cells; assay type: cell-based; parameters: host or cells: HEK293/BRD9-HiBiT knock-in; clone and BRD9-HiBiT/CAS9/FF clone; settings: 1000 nM, 6 h
T1 sequence (Q9H8M2 1-597): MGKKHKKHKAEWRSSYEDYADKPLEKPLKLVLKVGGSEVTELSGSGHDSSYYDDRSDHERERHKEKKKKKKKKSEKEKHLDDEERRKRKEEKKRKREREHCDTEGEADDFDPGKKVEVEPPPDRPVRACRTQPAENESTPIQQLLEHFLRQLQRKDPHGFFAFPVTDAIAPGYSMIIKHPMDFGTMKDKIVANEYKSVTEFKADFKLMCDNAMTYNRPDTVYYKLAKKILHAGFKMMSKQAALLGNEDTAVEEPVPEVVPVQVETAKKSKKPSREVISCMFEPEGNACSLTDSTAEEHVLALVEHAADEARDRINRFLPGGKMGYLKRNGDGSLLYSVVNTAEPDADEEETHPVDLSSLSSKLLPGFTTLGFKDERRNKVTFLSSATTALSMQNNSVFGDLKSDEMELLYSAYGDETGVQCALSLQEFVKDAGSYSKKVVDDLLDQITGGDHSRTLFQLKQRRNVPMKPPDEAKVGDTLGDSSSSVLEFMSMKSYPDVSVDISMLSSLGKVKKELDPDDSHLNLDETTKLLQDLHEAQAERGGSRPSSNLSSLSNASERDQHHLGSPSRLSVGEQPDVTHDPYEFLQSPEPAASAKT
Method: (§1) Whole cell lysates for immunoblotting were prepared by pelleting cells at 4 °C (300 g) for 3 min. Cell pellets were then washed 1x with PBS and resuspended in RIPA lysis buffer (VWR, cat # 97063-270) supplemented with protease (Thermo Scientific, cat # A32955) and phosphatase (Thermo Scientific, cat # A32957) inhibitor tablets. Lysates were clarified at 16,000 × g for 15 min at 4 °C prior to quantification by Lowry assay (Bio-Rad cat # 5000113 and cat # 5000114). Whole-cell lysates were loaded into 4–20% Criterion TGX Precast 18 well gels (Bio-Rad, cat # 5671094) and separated by electrophoreses at 120 V for 1 h. The gels were transferred to a nitrocellulose membrane using the Trans-Blot Turbo (Bio-Rad) for 7 min and then blocked for 1 h at room temperature in Odyssey blocking buffer (LICOR Biosciences, cat # 927-50000). Membranes were probed with the appropriate primary antibodies (diluted 1:1000) overnight at 4 °C in 20% Odyssey blocking buffer in 1x TBST. Membranes were washed three times with 1x TBST (5 min per wash), and then incubated with IRDye goat anti-mouse (LICOR, cat # 926-32210) or goat anti-rabbit (LICOR, cat # 926-32211) secondary antibody diluted 1:10,000 in 20% Odyssey blocking buffer for 1 h at room temperature. After three 5-min washes with 1x TBST, the immunoblots were visualized using the ODYSSEY Infrared Imaging System (LICOR). Alternatively, SDS-PAGE resolved proteins were transferred to a PVDF membrane using a wet blotting system (Invitrogen). Membranes were blocked in 5% Milk-PBS-Tween 20 for 1 h and incubated with primary antibody over night at 4 °C. Secondary antibodies (secondary antibody: anti-rabbit, goat pAb to Rb-IgG (Abcam, #7090); secondary antibody: anti-mouse, sheep IgG HRP-linked (GE healthcare, #NA931V)) were incubated for 1 h at room temperature (RT) before blots were developed on film using the detection kit SuperSignal West Femto Maximum Sensitivity Substrate (Thermo Fisher, #34096).

BRD9 [2] = target: T1, BRD9; assay: Rescue of DBr-1 mediated BRD9 degradation by co-treatment, BRD9-HiBiT HEK293 cells; assay type: cell-based; parameters: host or cells: HEK293/BRD9-HiBiT knock-in; clone and BRD9-HiBiT/CAS9/FF clone; settings: (13) 1 µM, OICR8268 10 µM, BI-9564 10 µM
Method: Supplementary figure 4. Competition experiments with DBr-1 and DBr-1-N […]
a) BRD9-HiBiT signal detection of samples pretreated with either DMSO, 10µM OICR-8268, 1µM […]
Data represents average ± standard deviation from n=3 replicates. DC50 values and […]
maximal observed degradation are shown below. […]
b) Cell titer Glow assay of BRD9 HiBiT cells. Cells pretreated with either DMSO, 10µM OICR-8268, […]
Data represents average ± standard deviation from n=3 replicates.
(§2) Source data are provided as a Source Data file

BTK [3] = target: T2, BTK (Homo sapiens, UniProt Q06187); assay: Immunoblot of BTK in TMD8 WT and CRBN (CBt) resistant cells; assay type: cell-based; parameters: performed with full-length BTK and endogenous DCAF1; expressed in transfected cells; host or cells: TMD8 cells, lentiviral, blasticidin-selected (TMD8 BTK-GFP/mCh); settings: 24 h; 0.1 µM CBt, 1 µM DBt-10
T2 sequence (Q06187 2-659 limits assumed): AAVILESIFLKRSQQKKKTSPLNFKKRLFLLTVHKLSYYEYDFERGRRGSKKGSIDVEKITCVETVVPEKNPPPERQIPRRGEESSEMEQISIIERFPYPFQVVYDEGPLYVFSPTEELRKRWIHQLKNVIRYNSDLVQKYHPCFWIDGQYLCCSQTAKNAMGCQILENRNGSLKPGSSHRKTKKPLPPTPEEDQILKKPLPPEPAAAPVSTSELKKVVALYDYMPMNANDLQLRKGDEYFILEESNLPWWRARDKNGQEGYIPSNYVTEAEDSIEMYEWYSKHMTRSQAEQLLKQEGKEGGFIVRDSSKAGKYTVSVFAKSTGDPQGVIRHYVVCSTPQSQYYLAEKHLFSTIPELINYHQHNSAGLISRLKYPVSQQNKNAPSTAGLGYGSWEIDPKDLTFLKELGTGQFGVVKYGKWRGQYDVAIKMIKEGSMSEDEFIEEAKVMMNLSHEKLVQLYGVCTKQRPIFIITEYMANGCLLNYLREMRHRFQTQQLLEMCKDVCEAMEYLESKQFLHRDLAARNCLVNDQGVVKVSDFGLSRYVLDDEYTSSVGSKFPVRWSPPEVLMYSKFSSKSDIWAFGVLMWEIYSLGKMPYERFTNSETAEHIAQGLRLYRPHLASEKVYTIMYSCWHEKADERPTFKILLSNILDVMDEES
Method: as §1, with “Alternatively, SDS-PAGE resolved proteins were transferred to a PVDF membrane using a wet blotting system (Invitrogen). Membranes were blocked in 5% Milk-PBS-Tween 20 for 1 h and incubated with primary antibody over night at 4 °C. Secondary antibodies (secondary antibody: anti-rabbit, goat pAb to Rb-IgG (Abcam, #7090); secondary antibody: anti-mouse, sheep IgG HRP-linked (GE healthcare, #NA931V)) were incubated for 1 h at room temperature (RT) before blots were developed on film using the detection kit SuperSignal West Femto Maximum Sensitivity Substrate (Thermo Fisher, #34096).” left out

BRD7 = target: T3, BRD7 (Homo sapiens, UniProt Q9NPI1); assay: BRD7-HiBiT protein abundance luminescence assay in HEK293 cells
T3 sequence (Q9NPI1 1-651): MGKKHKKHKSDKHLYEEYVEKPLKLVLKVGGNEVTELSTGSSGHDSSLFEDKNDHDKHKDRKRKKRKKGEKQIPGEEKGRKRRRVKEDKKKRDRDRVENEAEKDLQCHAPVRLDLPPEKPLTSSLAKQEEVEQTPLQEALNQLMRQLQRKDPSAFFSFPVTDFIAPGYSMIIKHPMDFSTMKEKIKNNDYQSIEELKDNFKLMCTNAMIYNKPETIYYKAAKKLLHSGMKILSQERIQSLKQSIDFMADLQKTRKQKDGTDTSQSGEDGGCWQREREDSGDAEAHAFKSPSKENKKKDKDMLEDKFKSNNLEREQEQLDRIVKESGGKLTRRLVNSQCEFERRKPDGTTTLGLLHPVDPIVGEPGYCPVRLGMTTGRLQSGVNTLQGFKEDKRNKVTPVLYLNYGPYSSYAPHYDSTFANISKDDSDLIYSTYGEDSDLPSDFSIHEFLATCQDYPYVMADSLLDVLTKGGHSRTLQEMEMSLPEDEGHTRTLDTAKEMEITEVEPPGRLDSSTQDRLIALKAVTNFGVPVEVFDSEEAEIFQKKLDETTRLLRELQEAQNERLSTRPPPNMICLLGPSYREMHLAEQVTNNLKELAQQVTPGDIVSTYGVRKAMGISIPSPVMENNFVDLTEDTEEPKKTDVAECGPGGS
From the text: HEK293/BRD9-HiBiT pools (PROMEGA # CS3023120) and HEK293/BRD7-HiBiT pools (PROMEGA # CS3023124) were purchased from Promega. We performed clonal selection for HEK293/BRD9-HiBiT cell line using single-cell sorting and screening for HiBiT expression using Nano-Glo HiBiT Lytic Detection System (Promega # N3030). The HEK293/BRD9-HiBiT clone and HEK293/BRD7-HiBiT pool to perform standard HiBiT assays.

BRD9 [4] = target: T1, BRD9; assay: Capillary western of BRD9 in 768-O cells; assay type: cell-based; settings: 768-O cells lacking VHL expression
Method: Protein peaks were analyzed using Compass for Simple Western version 5.0.1 (ProteinSimple), area under the curve for both α-tubulin ([…]) and BRD9 (90 kDa) per capillary was extracted and BRD9 area was normalized to α-tubulin area on a per-capillary basis before each sample was normalized to the DMSO for each run of three triplicates.

[5] = Viability by FSC/SSC gate (flow cytometry) in TMD8 BTK-GFP/mCh cells; assay type: cell-based, human; parameters: Max dose w/ Gating Viability >25%: unit: µM; settings: human, TMD8 BTK-GFP/mCh cells, TMD8 BTK-GFP/mCh, 24 h
Method: (§3) For flow cytometry measurements, 25,000 exponentially growing TMD8 BTK-GFP/mCh cells were plated in 100 μL of each well of a 96-well plate and grown for 24 h. Cells were then dosed with corresponding compounds and doses from 10 mM DMSO stock for 24 h, after which GFP and mCherry fluorescence was read with a Beckmann Coulter Cytoflex. For competition experiment, both compounds were added at the same time and dosed for 24 h. Cells were gated based on Forward & Side Scatter and selection for Single cells using SSC-A vs. SSC-H. Further, the population of viable cells was defined by the forward & side-scatter characteristics of DMSO-treated cells. […] Effects on viability were measured by the reduction of the percentage of cells included in this viable-population gate with increasing doses of compound tested. Degradation of BTK was calculated based on subtracting background (BG) fluorescence of parental TMD8 signal via (GFP-BG)/(mCherry-BG) of viable cells. Median ratios of three technical (different wells) replicates were used to calculate daily averages. Each compound dose–response was generated via three biological replicates (different days of experiment). Degradation curve parameters (DC50 & Abs. DC50 & max. Deg) were extracted using GraphPad Prism’s 4-parameter logistic curve fitting.
(§4) The viability window was determined by measuring the GI50 of viability based on the percentage of cells included in the viable gate and comparing it to the DC50 of degradation. The fold-change difference describing this window is [GI50 Viability / DC50 Degradation], where values above 1 indicate a positive (lower DC50 degradation than AC50 viability) window.

TMD8 BTK-GFP/mCh cells = assay: as above; assay type: cell-based, human; parameters: Max dose w/ Gating Viability >25%: unit: µM; settings: TMD8 BTK-GFP/mCh, 24 h
Method: as §3, §4

BTK [6] = target: T2, BTK; assay: BTK-GFP degradation by flow cytometry in TMD8 BTK-GFP/mCh cells; assay type: cell-based; parameters: performed with full-length BTK and endogenous DCAF1; expressed in transfected cells; host or cells: TMD8 cells, lentiviral, blasticidin-selected (TMD8 BTK-GFP/mCh); settings: TMD8 BTK-GFP/mCh, 24 h; read-out: DC50 BTK-Degradation
Method: The bicistronic pLenti6 BTK-GFP-chysel-mCHERRY expression vector was cloned as described[92] using Gateway cloning with a pENTR-BTK plasmid lacking a STOP codon. TMD8 cells were then infected with lentiviral particles from this vector as described above and stably transfected cells were selected with blasticidin at a concentration of 10 μg/mL referred to as TMD8 BTK-GFP/mCh cells.
For flow cytometry measurements, 25,000 exponentially growing TMD8 BTK-GFP/mCh cells were plated in 100 μL of each well of a 96-well plate and grown for 24 h. Cells were then dosed with corresponding compounds and doses from 10 mM DMSO stock for 24 h, after which GFP and mCherry fluorescence was read with a Beckmann Coulter Cytoflex. For competition experiment, both compounds were added at the same time and dosed for 24 h. Cells were gated based on Forward & Side Scatter and selection for Single cells using SSC-A vs. SSC-H. Further, the population of viable cells was defined by the forward & side-scatter characteristics of DMSO-treated cells. To confirm cells outside of this population as non-viable, cells were plated and treated for 24 h, washed with PBS and stained for 30 min with two markers of early (Annexin-V) and late (LIVE/DEAD) apoptosis. Effects on viability were measured by the reduction of the percentage of cells included in this viable-population gate with increasing doses of compound tested. Degradation of BTK was calculated based on subtracting background (BG) fluorescence of parental TMD8 signal via (GFP-BG)/(mCherry-BG) of viable cells. Median ratios of three technical (different wells) replicates were used to calculate daily averages. Each compound dose–response was generated via three biological replicates (different days of experiment). Degradation curve parameters (DC50 & Abs. DC50 & max. Deg) were extracted using GraphPad Prism’s 4-parameter logistic curve fitting.

[7] = tested on: TMD8 WT and TMD8 CRBN resist. cells; assay: CellTiter-Glo viability, TMD8 WT vs CRBN resist. cells; assay type: cell-based, human; settings: CellTiter-Glo proliferation
Method: TMD8 cells were grown in the presence of a CRBN-BTK PROTAC CBt using a gradual dose increase. Start treatment was 0.1 nM for 6 weeks, followed by 3 weeks at 0.4 nM and another 4 weeks at 10 nM to finally obtain CBt resistant TMD8 cells (TMD8 CRBN resist.).
d) Viability measured by cell titer-Glo for DBt-10 (green) vs (13) (purple) in WT (solid) vs CRBN resist.
(dotted) TMD8 cells. Data represents average ± standard deviation from n=3 replicates.
e) Repeat of the viability measured by cell titer-Glo for DBt-10 (green) vs (13) (purple) in WT (solid) vs
CRBN resist. (dotted) TMD8 cells with adjusted dose response range. Data represents average ±
standard deviation from n=3 replicates.
as §2

## COc1cc(-c2cn(C)c(=O)c3cnccc23)c(OC)cc1CN(C)C [BI-9564, reference compound]
BRD9 [1]
  BRD9 protein reduction by individual binders: No BRD9 protein reduction
BRD9 [2]
  effect of co-treatment on DBr-1 mediated BRD9 degradation: fully rescue the BRD9 degradation

## COc1ccc(C(=O)N2CCC3(CCN(CCc4ccc(-c5cc6c(-c7cc(F)cc(NC(=O)c8ccc(C(C)(C)O)cc8F)c7C)ncnc6[nH]5)cc4)CC3)CC2)cc1N1CCC(=O)NC1=O [CBt, reference compound]
BTK [3]
  BTK degradation in TMD8 CBt sensitive (WT) vs resistant cells: BTK degradation only in the WT but not in the CBt-resistant TMD8 cells

## COc1cc(-c2cn(C)c(=O)c3cnccc23)cc(OC)c1CN1CCN(CCCCCOc2cc(-c3scnc3C)ccc2CNC(=O)[C@@H]2C[C@@H](O)CN2C(=O)[C@@H](NC(=O)C2(F)CC2)C(C)(C)C)CC1 [VZ185]
BRD7; 2 h
  maximal observed degradation (BRD7), % in brackets: 21%
BRD7; read-out: rel. DC50 (BRD7), 2 h
  DC50: 0.137 µM
BRD9 [4]
  BRD9 levels in 768-O cells: intrinsic resistance

## CCN(CC)Cc1ccc(-c2cc3c(-c4cc(F)cc(NC(=O)c5ccc(C(C)(C)O)cc5F)c4C)ncnc3[nH]2)cc1 [compound 17, reference compound]
[5]; read-out: Abs GI50
  GI50 at 24 h: 6.82 µM
[5]; read-out: GI50
  GI50 at 24 h: 6.75 µM
TMD8 BTK-GFP/mCh cells
  Max dose w/ Gating Viability >25%: 5.39
BTK [6]
  DC50: > 25 µM
[7]
  relative potency change between CBt sensitive and resistant TMD8 cells: neither inhibitor showed any relative potency change

## C=CC(=O)N1CCC[C@@H](n2nc(-c3ccc(Oc4ccccc4)cc3)c3c(N)ncnc32)C1 [ibrutinib]
[7]
  relative potency change between CBt sensitive and resistant TMD8 cells: neither inhibitor showed any relative potency change
